The values that follow come from US5756107A, “Formulations and methods for reducing skin irritation” (Cosmederm Technologies, priority 1994, dated 1998).

“Also recorded” adds a separate entry of the source. Where a name gives a salt, the structure may show the parent alone.

In data set [1] the test system is subject's skin (skin irritation caused by lactic acid). Briefly: Lactic acid skin irritation challenge, double-blind randomized vehicle-controlled clinical trial (cumulative sensory irritation). The settings on record: for Percent Inhibition (average inhibition of cumulative irritation): cation salts at 250 mM, average over clinical tests of over 550 subjects, 7.5% lactic acid challenge; for anti-irritant activity (in words): clinical trials, topical; for Percent Inhibition: representative subject panels, cation concentrations of 250 mM, vehicle 10% EtOH. The data set is classed as in vivo, human. As for the experimental part: The trials were conducted in a double blind, randomized, vehicle-controlled manner. Various formulations of the invention were tested in over 550 people.
Controls were performed by applying a corresponding formulation without any added cation to a contralateral portion of the subject's skin.
The following scaled scores were used for sensory assessment:
Cumulative irritation data are set forth in the following tables, and are depicted in FIGS. 9 and 10.

The subject of data set [2] is skin irritation. Put plainly: Inhibition of skin irritation by salts in Elizabeth Arden Visible Difference Refining Toner. The data set is classed as in vivo. To be noted: topical solution in Elizabeth Arden Visible Difference Refining Toner, various amounts. On the procedure:
Cation salts of the invention were formulated at various concentrations in various commercially available topical cosmetic products.
Topical solution forms of potassium nitrate, potassium chloride, potassium citrate, lithium sulfate, lithium nitrate and lithium acetate were prepared by combining various amounts of the named salts with Elizabeth Arden Visible Difference Refining Toner (an alcohol-containing solution).

For data set [3], the system named is tooth sensitivity. The settings on record: dentifrice, two to six weeks of continuous use; cited from earlier work.
The subject of data set [4] is exposed tooth nerves. To be noted: cited from earlier work.
For data set [5], the system named is sodium channels. The settings on record: cell membranes; cited from earlier work.
The conditions of data set [6]: cited from earlier work.
For data set [7] the following is noted: in vivo, po; cited from earlier work.
For data set [8], the system named is brains of test animals. The settings on record: applied directly to the brains of test animals; cited from earlier work.
The subject of data set [9] is exposed tooth pulp. The settings on record: exposed tooth pulp vs dentin; cited from earlier work.

In the case of `CC(=O)O` [Lithium acetate], in [1], the “Percent Inhibition (average inhibition of cumulative irritation)” value is listed as 70%, the “anti-irritant activity (in words)” value is on record as “particularly active as anti-irritants” and the “Percent Inhibition” value amounted to 67%. The “inhibition of skin irritation (in words)” value in [2] is listed as “effective to inhibit skin irritation”.
As to `O=C(O)O` [Lithium carbonate, lithium carbonate], in data set [1], the “anti-irritant activity (in words)” value is “particularly active as anti-irritants” and the “Percent Inhibition” value was found to be 69%.
Take `[Cl-].[Li+]` [Lithium chloride]: in data set [1], the “Percent Inhibition (average inhibition of cumulative irritation)” value was 0% and the “Percent Inhibition” value is reported as 6%.
Turning to `O=[N+]([O-])[O-].[Li+]` [Lithium nitrate], in data set [1], the “Percent Inhibition (average inhibition of cumulative irritation)” value is given as 20%, the “anti-irritant activity (in words)” value is “particularly active as anti-irritants” and the “Percent Inhibition” value is reported as 16%. Also, the “inhibition of skin irritation (in words)” value in data set [2] was “effective to inhibit skin irritation”.
As to `O=S(=O)([O-])[O-].[Li+].[Li+]` [Lithium sulfate], the “Percent Inhibition (cumulative irritation, dose-response)” value in [1] (31 mM) was 2%; in data set [1] (62 mM), -7%; in data set [1] (125 mM), 16%; in data set [1] (250 mM), 27%; in data set [1] (500 mM), 30%. For the same compound, the “Percent Inhibition (average inhibition of cumulative irritation)” value in data set [1] was determined as 35%. For the same compound, in data set [1], the “anti-irritant activity (in words)” value is reported as “overall efficacy of the subject formulations is evident; also recorded: particularly active as anti-irritants”. In [1], the “Percent Inhibition” value stood at 39%. Besides, the “inhibition of skin irritation (in words)” value in data set [2] was “effective to inhibit skin irritation”.
As for `[Cl-].[K+]` [Potassium chloride], in data set [1], the “Percent Inhibition (average inhibition of cumulative irritation)” value came to 40%, the “anti-irritant activity (in words)” value was “overall efficacy of the subject formulations is evident; also recorded: particularly active as anti-irritants” and the “Percent Inhibition” value is reported as 38%. Also, the “inhibition of skin irritation (in words)” value in data set [2] is “effective to inhibit skin irritation”.
For `O=C([O-])[C@H](O)[C@@H](O)[C@H](O)[C@H](O)CO.[K+]` [Potassium gluconate], in [1], the “Percent Inhibition (average inhibition of cumulative irritation)” value is reported as 25%, the “anti-irritant activity (in words)” value is “particularly active as anti-irritants” and the “Percent Inhibition” value is on record as 25%.
`O=[N+]([O-])[O-].[K+]` [Potassium nitrate]: the “Percent Inhibition (cumulative irritation, dose-response)” value in data set [1] (31 mM) is given as -3%; in data set [1] (125 mM), 18%; in data set [1] (250 mM), 29%; in data set [1] (500 mM) it was 60%. For the same compound, the “Percent Inhibition (average inhibition of cumulative irritation)” value in data set [1] is on record as 30%. In addition, the “anti-irritant activity (in words)” value in data set [1] is “particularly active as anti-irritants”. In data set [1], the “Percent Inhibition” value amounted to 29%. For the same compound, the “inhibition of skin irritation (in words)” value in data set [2] was “effective to inhibit skin irritation”. Also, in data set [3], the tooth sensitivity result is listed as “reduce tooth sensitivity”.
Take `O=C(O)C(=O)O` [Potassium oxalate, potassium oxalate]: in data set [1], the “anti-irritant activity (in words)” value is listed as “particularly active as anti-irritants” and the “Percent Inhibition” value stood at 30%.
Turning to `O=S(=O)([O-])[O-].[K+].[K+]` [Potassium sulfate], in [1], the “Percent Inhibition (average inhibition of cumulative irritation)” value is listed as 15% and the “Percent Inhibition” value was determined as 27%.
Take `[Ca+2]` [calcium]: the nerve electrical responses result in [4] was “may suppress nerve electrical responses”.
Consider `[Li+]` [lithium (Li^+), lithium], for which the “block of sodium channels” value in [5] is “block sodium channels on cell membranes”. The “anti-irritant activity (in words)” value in [1] is “effective, when applied topically to the skin in appropriate concentrations and vehicles, to suppress the relatively severe stinging, burning, tingling, itching and/or erythema”. Further, in data set [1] (preliminary studies, low concentration, vehicle includes glycerol), the “anti-irritant efficacy, effect of glycerol in the vehicle” value is listed as “increased if the vehicle includes glycerol”.
Turning to `O=S(=O)([O-])[O-].[Mg+2]` [magnesium sulfate], the anesthesia or analgesia result in [6] (intravenous) was “produces neither anesthesia nor even analgesia in humans”.
Take `[Mg+2]` [magnesium]: in data set [7], the “paralysis or depressed neural activity” value is “does not result in paralysis or depressed neural activity in healthy individuals”. For the same compound, in data set [6] (magnesium ion, intravenously-administered magnesium sulfate), the “paralysis of skeletal muscles” value was “induces paralysis of skeletal muscles”. For the same compound, in data set [4], the nerve electrical responses entry is “may suppress nerve electrical responses”. In data set [8], the “neural or synaptic activity” value is “depressed neural or synaptic activity, and even a sleep-like state”.
Turning to `[K+]` [potassium (K^+), potassium], the “anti-irritant activity (in words)” value in data set [1] is “effective, when applied topically to the skin in appropriate concentrations and vehicles, to suppress the relatively severe stinging, burning, tingling, itching and/or erythema”. For the same compound, the “pain on application to tooth pulp or dentin” value in data set [9] is on record as “pain is induced when potassium ion is applied to exposed tooth pulp but not when applied to the dentin”. Moreover, the nerve electrical responses entry in [4] is “evokes a transient electrical response followed by inhibition of excitability”.
For the compound `O=C([O-])CC(O)(CC(=O)[O-])C(=O)[O-].[K+].[K+].[K+]` [potassium citrate], in data set [2], the “inhibition of skin irritation (in words)” value is on record as “effective to inhibit skin irritation”.
In the case of `[Cl-].[Cl-].[Sr+2]` [strontium chloride, reference compound], the tooth sensitivity entry in data set [3] is “reduce tooth sensitivity”.
